Experiments:
Type in all cases: cell-based
[1] = target: T1, inducible caspase-9 (iCasp9) (Homo sapiens, UniProt P55211); assay: caspase-9 activation in CID-treated iCasp9-GFP J2 fibroblasts (antibody staining, Caspase-Glo 9)
T1 construct: #15567 pMSCV-F-del Casp9.IRES.GFP; host or cells: 3T3-J2 fibroblasts, lentivirally transduced
From the text: Inducible caspase-9 (iCasp9), which is activated by treatment with a small molecule chemical inducer of dimerization (CID; also known as rapalog, an analog of rapamycin) and leads to subsequent cell death through the intrinsic apoptosis pathway was utilized (FIG. 1A). The safety and efficacy of the iCasp9 transgene and CID have previously been shown in vitro and in vivo in animals and humans (A. Di Stasi, et al. (2011) dx.doi.org/10.1056/NEJMoa1106152; T. Gargett and M. P. Brown (2014) Front. Pharmacol. 5; K. C. Straathof, et al. (2005) Blood 105, 4247, each of which is herein incorporated by this reference). To generate inducible cells, 3T3-J2 fibroblasts (‘J2’) were transduced with lentivirus with a bidirectional expression cassette encoding iCasp9 and GFP genes (#15567 pMSCV-F-del Casp9.IRES.GFP; cloned to a lentivirus plasmid backbone with an SFFV promoter). FACS was used to enrich the infected population for the 15% highest-expression GFP+ cells. […] To transfect J2s, virus was added to growth media and cultured overnight. iCasp9-GFP J2 fibroblasts at passage 22 were grown at confluence for 2 weeks to mimic experimental culture conditions, without a decrease in the percentage of the cell population with positive GFP expression. iCasp9-GFP J2s were plated in monolayer and dosed with ethanol vehicle or CID (B/B homodimerizer, AP20187; rapalog; Takara/ClonTech), and then assayed for cell viability using the CellTiter-Glo® Luminescent Cell Viability Assay (Promega), for caspase-9 activation using the CaspGLOW™ Fluorescein Active Caspase-9 Staining Kit (Thermo Fisher Scientific) and Caspase-Glo®9 Assay Systems (Promega), or stained with the Pacific Blue Annexin V/SYTOXTM AADvanced™ Apoptosis Kit (Thermo Fisher) to identify apoptotic cells by flow cytometry (>100,000 cells analyzed per condition).
After iCasp9-GFP J2 fibroblasts were exposed to CID, iCasp9 dimers were detected by staining with a caspase-9 antibody (FIG. 1C). […]

[2] = tested on: iCasp9-GFP J2s; assay: Annexin V / SYTOX apoptosis flow cytometry; details: within the first hour after CID treatment
From the text: Inducible caspase-9 (iCasp9), which is activated by treatment with a small molecule chemical inducer of dimerization (CID; also known as rapalog, an analog of rapamycin) and leads to subsequent cell death through the intrinsic apoptosis pathway was utilized (FIG. 1A). The safety and efficacy of the iCasp9 transgene and CID have previously been shown in vitro and in vivo in animals and humans (A. Di Stasi, et al. (2011) dx.doi.org/10.1056/NEJMoa1106152; T. Gargett and M. P. Brown (2014) Front. Pharmacol. 5; K. C. Straathof, et al. (2005) Blood 105, 4247, each of which is herein incorporated by this reference). To generate inducible cells, 3T3-J2 fibroblasts (‘J2’) were transduced with lentivirus with a bidirectional expression cassette encoding iCasp9 and GFP genes (#15567 pMSCV-F-del Casp9.IRES.GFP; cloned to a lentivirus plasmid backbone with an SFFV promoter). FACS was used to enrich the infected population for the 15% highest-expression GFP+ cells. […]
After iCasp9-GFP J2 fibroblasts were exposed to CID, iCasp9 dimers were detected by staining with a caspase-9 antibody (FIG. 1C). […] To confirm that CID-triggered caspase-9 activation led to apoptosis, unfixed cells were stained with Annexin V, which binds to an early indicator of apoptosis, and SYTOX, a general marker of cell death, and analyzed by flow cytometry.

[3] = tested on: unmodified J2s; assay: CID exposure of MPCCs plated with unmodified fibroblasts; details: data not shown
From the text: Specifically, MPCC were fabricated as described previously (S. R. Khetani and S. N. Bhatia (2005) Nat. Biotechnol 26, 120; S. March et al. (2015) Nat. Protoc. 10, 2007). Briefly, collagen was adsorbed in each well of a 96 well plate (glass bottom), and then patterned using an elastomeric polydimethysiloxane mold and oxygen plasma gas ablation. Human hepatocytes were thawed and seeded (70 k/well) on the collagen islands (500 μm with 1,200 μm center-to-center spacing). Adhered hepatocytes (˜10 k/well) were allowed to spread overnight before fibroblasts were seeded for co-culture (7 k/well). Supernatant was collected from cultures every other day and stored at −20° C. Human albumin was quantified using an enzyme-linked immunosorbent assay using a sheep anti-rat albumin antibody (ELISA) (Bethyl Laboratories) and 3,3′,5,5′-tetramethylbenzidine (TMB, Thermo Fisher). Urea concentration was measured using a colorimetric (diacetylmonoxime) assay with acid and heat (Stanbio Labs). CYP3A4 activity was assessed with the luminogenic P450-GloTM CYP450 assay kit (Promega) for nonlytic assays using cultured cells. Cultures were pre-treated with 2 μM rifampin or 1:1,000 DMSO vehicle control prepared in hepatocyte maintenance media for 72 hours (daily replenishment) where indicated. […]

T1 sequence (P55211 with tags, fused parts or gaps limits assumed): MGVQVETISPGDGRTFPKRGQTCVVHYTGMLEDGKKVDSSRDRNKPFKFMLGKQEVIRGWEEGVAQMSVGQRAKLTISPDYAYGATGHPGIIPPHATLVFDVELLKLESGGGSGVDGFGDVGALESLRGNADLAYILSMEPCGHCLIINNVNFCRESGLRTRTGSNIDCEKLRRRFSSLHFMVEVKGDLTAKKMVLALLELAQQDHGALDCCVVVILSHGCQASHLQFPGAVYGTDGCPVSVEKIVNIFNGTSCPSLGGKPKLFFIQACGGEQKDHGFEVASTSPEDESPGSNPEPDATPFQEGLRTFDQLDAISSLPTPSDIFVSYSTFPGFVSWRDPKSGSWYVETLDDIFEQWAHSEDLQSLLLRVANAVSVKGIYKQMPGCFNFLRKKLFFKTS

CC[C@H](C(=O)N1CCCC[C@H]1C(=O)O[C@H](CCc1ccc(OC)c(OC)c1)c1cccc(OCC(=O)NCC(CNC(=O)COc2cccc([C@@H](CCc3ccc(OC)c(OC)c3)OC(=O)[C@@H]3CCCCN3C(=O)[C@@H](CC)c3cc(OC)c(OC)c(OC)c3)c2)CN(C)C)c1)c1cc(OC)c(OC)c(OC)c1 [CID, AP20187]
Caspase-9 staining ([1]; 50 nM CID, collected 15 and 30 minutes after treatment): increased | caspase-9 cleavage compared to wild-type J2s ([1]; 15 minutes after CID dosing): 16 fold | caspase-9 cleavage compared to wild-type J2s ([1]; 30 minutes after CID dosing): 18 fold | proportion of iCasp9-GFP J2s undergoing apoptosis [2]: increased in a time-dependent manner | effect of CID exposure on unmodified J2s in MPCCs [3]: unaffected
